In PubChem BioAssay (NCI):
Where “and” joins values, the source holds several entries; their conditions need not be identical. Equal values may be shown once.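 Protocol summary: plate cells (96-well), add compound at 5 concentrations, incubate 48 h, interpolate endpoints linearly. GI50 marks 50% less growth. The concentration for full growth arrest is given as TGI.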

Experiments:
Assay in all cases: NCI-60 cell line screen, 48 h
NCI-H522 lung = system: NCI-H522 lung
HL-60(TB) leukemia = system: HL-60(TB) leukemia
SNB-75 CNS = system: SNB-75 CNS
HOP-62 NSCLC = system: HOP-62 NSCLC
SF-268 CNS = system: SF-268 CNS
786-0 renal = system: 786-0 renal
SNB-19 CNS = system: SNB-19 CNS
A549 NSCLC = system: A549 NSCLC
OVCAR-3 ovarian = system: OVCAR-3 ovarian
OVCAR-4 ovarian = system: OVCAR-4 ovarian

| Structure (SMILES) | GI50 (NCI-H522 lung) | TGI (NCI-H522 lung) | GI50 (HL-60(TB) leukemia) | TGI (HL-60(TB) leukemia) | GI50 (SNB-75 CNS) | TGI (SNB-75 CNS) | GI50 (HOP-62 NSCLC) | TGI (HOP-62 NSCLC) | GI50 (SF-268 CNS) | TGI (SF-268 CNS) | GI50 (786-0 renal) | TGI (786-0 renal) | GI50 (SNB-19 CNS) | TGI (SNB-19 CNS) [µM] | GI50 (A549 NSCLC) | TGI (A549 NSCLC) | GI50 (OVCAR-3 ovarian) | TGI (OVCAR-3 ovarian) | GI50 (OVCAR-4 ovarian) | TGI (OVCAR-4 ovarian) [µM] |
| --- | --- | --- | --- | --- | --- | --- | --- | --- | --- | --- | --- | --- | --- | --- | --- | --- | --- | --- | --- | --- |
| CCCCCCNC(=O)c1nc(-c2ccccc2)oc1Cc1ccc(OP(=O)(O)O)cc1 | 16.1 µM | 34.5 µM | 25.2 µM | 62.4 µM | 13.1 µM | 29.2 µM | 17.4 µM | 32.3 µM | 17.3 µM | 35.4 µM | 17.9 µM | 35.4 µM | 22 µM | > 100 | 18 µM | 36 µM | 17.1 µM | 31.4 µM | 16.6 µM | 30.8 |
| Cc1ccc(/C=C/c2c(C(=O)/C=C/c3ccc(C(F)(F)F)cc3)c(C)nc3ccccc23)cc1 | 1.33 µM | 4.35 µM | 1.25 µM | 3.66 µM | 1.23 µM | 2.48 µM | 1.88 µM | 3.73 µM | 1.57 µM | 3.09 µM | 1.7 µM | 3.18 µM | 1.55 µM | 2.88 | 2.03 µM | 4.76 µM | 1.55 µM | 3.82 µM | 1.61 µM | 3.37 |
| c1ccc(SC2CCSc3ccccc3C2Sc2ccccc2)cc1 (stereo not given) |  | > 100 µM |  | > 100 µM |  | > 100 µM |  | > 100 µM |  | > 100 µM |  | > 100 µM |  | > 100 |  | > 100 µM |  | > 100 µM |  | > 100 |
| COc1ccccc1N1CCN(CCCn2c(=O)c3c(OC)nc(C)cc3c(=O)n2-c2ccccc2)CC1 | > 100 µM | > 100 µM | > 100 µM | > 100 µM | > 100 µM | > 100 µM | > 100 µM | > 100 µM | > 100 µM | > 100 µM | > 100 µM | > 100 µM | > 100 µM | > 100 | > 100 µM | > 100 µM | > 100 µM | > 100 µM | > 100 µM | > 100 |
| COc1cccc2c1C(=O)c1c(O)c3c(c(O)c1C2=O)CC(O)(/C(C)=N/NC(=O)CCC(=O)N/N=C(\C)C1(O)Cc2c(O)c4c(c(O)c2C(OC2CC(N)C(O)C(C)O2)C1)C(=O)c1c(OC)cccc1C4=O)CC3OC1CC(N)C(O)C(C)O1 (stereo not given) | 0.0503 µM | 0.327 µM | 0.397 µM | 4.23 µM | 0.222 µM | 2.01 µM | 0.19 µM | 1.57 µM | 0.259 µM | 8.11 µM | 0.182 µM | 1.06 µM | 0.198 µM | 1.38 | 0.414 µM | 1.81 µM | 0.259 µM | 2.66 µM | 0.885 µM | > 21.4 |
| CCOc1ccc2c(c1)[n+]([O-])c(-c1ccccc1Cl)c(N)[n+]2[O-] |  | 33.8 µM |  | > 100 µM |  | > 100 µM |  | > 100 µM |  | > 100 µM |  | > 100 µM |  | > 100 |  | > 100 µM |  | > 100 µM |  | > 100 |
| O=C(c1c(F)ccc(NS(=O)(=O)N2CC[C@@H](F)C2)c1F)c1c[nH]c2ncc(-c3cnc(C4CC4)nc3)cc12 | 3.05 µM and 4.34 µM | > 10 µM and 22.7 µM | 7.69 µM and 6.11 µM | > 10 µM and 41.3 µM | 1.77 µM and 2.17 µM | > 10 µM and 12.8 µM | 6.24 µM and 7.01 µM | > 10 µM and 58.6 µM | 5.86 µM and 6.77 µM | > 10 µM and 71.3 µM | 5.46 µM and 6.36 µM | > 10 µM and 56.7 µM | > 10 µM and 9.77 µM | > 85.4 | 5.85 µM and 7.09 µM | > 10 µM and 40.3 µM | > 8.35 µM and 6.04 µM | > 10 µM and 57.4 µM | 6.02 µM and 4.39 µM | > 69.7 |
| C=CC(=O)N1CCC(C2CCNc3c(C(N)=O)c(-c4ccc(Oc5ccccc5)cc4)nn32)CC1 (stereo not given) | 4.93 µM | 22.7 µM | 14.6 µM | 40.3 µM | 8.31 µM | 38.6 µM | 19.5 µM | 67.7 µM | 6.98 µM | 45 µM | 12.2 µM | > 100 µM | 14.4 µM | > 100 | 21.2 µM | > 100 µM | 12.2 µM | 56.2 µM | 6.25 µM | 95.4 |
| COC(=O)[C@]1(C)CCCC2(C)C1CC[C@H]1C=C(C)[C@H]3CCC12C3 (stereo not given in full) |  | > 100 µM |  | > 100 µM |  | > 100 µM |  | > 100 µM |  | > 100 µM |  | > 100 µM |  | > 100 |  | > 100 µM |  | > 100 µM |  | > 100 |
| C[C@H]1Oc2cc(cnc2N)-c2c(nn(C)c2C#N)CN(C)C(=O)c2ccc(F)cc21 | 57 µM | > 100 µM | > 100 µM | > 100 µM | 21.7 µM | > 100 µM | 23 µM | > 100 µM | 27.1 µM | > 100 µM | 36.2 µM | > 100 µM | > 100 µM | > 100 | 25.4 µM | > 100 µM | > 89.3 µM | > 100 µM | > 100 µM | > 100 |
